In data set [1] the test system is human primary epithelial cells (MEC, normal cells). Kind of data set: Scrape load/dye transfer GJIC assay, primary epithelial cells (MEC). To be noted: compared to its controls. The class given is cell-based. Here is the method: Intercellular communication in many organs is maintained via GJIC. Several GJIC enhancers have been reported; however, an effective clinical drug targeting gap junction is not available at this time. The effect of PQ1 on the GJIC activity in T47D breast cancer cells was tested. […] Conversely, PQ1 has no effect on GJIC activity of human primary epithelial cells (MEC, normal cells) compared to its controls (data not shown). The distance of dye transfer from section cut to the farthest cells with dye was measured. […] MECs have uniform uptake of Lucifer yellow. This is due to the existing high level of gap junction activity of these normal cells.
Gap Junction Activity. For scrape load/dye transfer (SL/DT) assay, cells were grown to 90% confluency on cover slips, dosed with 10, 50, 100 and 200 nM of TCDD for 40 minutes. After that cells were washed three times with PBS. The 2.5 μl of 1% (w/v) Lucifer yellow and 0.75% (w/v) of Rhodamine dextran was mixed and added in the center of the coverslip. Two cuts crossing each other in the center of the coverslip were made. After three minutes, cells were washed three times with PBS and incubated at 37° C. in tissue culture media for 20 minutes. The cells were then washed with PBS three times and fixed in 2.5% paraformaldehyde for 10 minutes. Cells were mounted on a slide, sealed and visualized under a fluorescence microscope at 10× objective.

The subject of another data set is T47D cells. Briefly: Cell morphology, T47D cells. In kind it is cell-based, human. As to conditions: varying concentrations, 24 hours. Here is the method: Cell Morphology: T47D cells (1000 cells/ml) were seeded in a six-well plate for 24 hours. Next day, cells were dosed with varying concentrations of PQ1 for 24 hours. Cells were observed under a microscope before and after the experiment. No effect seen on the morphology of cells in the presence of PQ1.

Data set [2] has as its system transformed human mammary epithelial cells (HMEC). Kind of data set: Cell proliferation, HMEC. The class given is cell-based. Here is the method:
There was no effect seen on the cell proliferation in transformed human mammary epithelial cells (HMEC, data not shown).
MTT assay: This assay is done to measure cell proliferation and viability. Yellow MTT (3-(4,5-Dimethylthiazol-2-yl)-2,5-diphenyltetrazolium bromide, a tetrazole) is reduced to purple crystals, formazan in the mitochondria of living cells. A solubilization solution is added to dissolve the insoluble purple formazan product into a colored solution. The absorbance of this colored solution can be measured by a spectrophotometer. T47 D cells (20,000) were grown in 96-well plate and dosed with 10, 100, 200, 500 nM of PQ1 compound in 100 μl of complete media for 24 hours. MTT (20 μl) was added to the cells and purple formazan crystals were observed after 90 minutes. A solubilization solution (0.35 N HCl) was added to dissolve the formazan and the absorbance was measured at 595 nm wavelength with a background wavelength 690 nm by a spectrophotometer.

Another data set deals with MEC. Briefly: MTT assay, cell viability, MEC. The class given is cell-based, human. To be noted: for cell viability compared to control: 24 hours. Here is the method: The cytotoxicity of PQ1 in MEC and T47D cells using MTT assay was also determined. Cells were treated with 10, 100, 200, and 500 nM PQ1 for 24 hours. MTT assay was performed according to the manufacture's recommendations. A 200 nM PQ1 has 67% cell viability compared to controls (FIG. 16). Treatments of 100 and 200 nM PQ1 have 95% and 103% MEC cell viability compared to control. However, both MEC and T47D cells decrease cell viability to 50% and 65% at 1 μM PQ1, respectively. Thus, 100-200 nM of PQ1 is sufficient to enhance GJIC activity.
MTT assay. MTT (3-(4,5-dimethyl thiazol-2-yl)-2,5-diphenyl tetrazolium bromide) assay was performed with adherent cell cultures using a culture medium free of phenol red and of serum. Solution containing MTT was metabolized by the cells (incubation period 3 hours). MTT is a tetrazolium salt (yellowish) that is cleaved to formazan crystals by the succinate dehydrogenase system which belongs to the mitochondrial respiratory chain, and is only active in viable cells. The mitochondrial succinate dehydrogenase reduces the MTT crystals into purple formazan in the presence of an electron coupling reagent. The more viable cells will be presented in a well, the more formazan dye will be produced. After solubilization of the MTT crystals with the solubilization solution MTT, the amount of dye will be measured spectrophotometrically at 540 nm.
Background: Tetrazolium dyes change colour on reduction, which living cells bring about.

Another data set concerns Cx32. Kind of data set: Western blot of Cx32 in T47D cells. The class given is cell-based, human. As to conditions: 10, 100, 200 and 500 nM, 24 hours. Here is the method:
(§1) T47D cells were dosed with PQ1 for 24 hours. The Western blot analysis was performed as described in Materials and Methods. Whole cell extract was analyzed for Cx 43, Cx32, and Cx26. Experiment was performed at least three times.
(§2) Furthermore, whole cell extract of PQ1 treatment was analyzed for the changes in gap junctional proteins, connexins. Cells were treated with 10, 100, 200, and 500 nM PQ1 for 24 hours. Western blot analysis was performed against Cx26, Cx32, and Cx43 (FIG. 17). […] Anti-tubulin was used as a loading control.
(§3) Western Blot Analysis. Cells were grown in serum supplemented RPMI media until they were 90% confluent in 75 cm^2 flasks. Cells were kept in starving media containing phenol red-free DMEM with 5% charcoal dextran stripped serum, overnight. Cells were dosed with 0, 10, 100, 200 and 500 nM of PQ1 for 24 hours. Cells were washed three times with cold PBS and then were harvested using lysis buffer (20 mM Tris pH 7.5, 0.5 mM EDTA, 0.5 mM EGTA, 0.5% Triton X-100) with 1:1000 dilution of protease inhibitors (Sigma-Aldrich, Saint Louis, Mo.). Cell lysate was sonicated and centrifuged at 13,000 rpm for 30 minutes at 4° C. […] Western blots were detected by enhanced chemiluminescence detection reagents (Pierce, Rockford, Ill., USA).
On the technique in general: Immunoblotting shows a protein as a band on a membrane.

A further data set relates to Cx43. Kind of data set: Western blot of Cx43 and phosphorylated Cx43 in T47D cells. In kind it is cell-based, human. To be noted: 10, 100, 200 and 500 nM, 24 hours. Here is the method: as §1, §2, §3
The nature of a further data set: Solubility in water. The class given is physicochemical. To be noted: succinic acid salt.

One may read the cell viability as a read-out of living cells in per cent, often relative to untreated cells. A high value points to less harm to the cells. Take `COc1cc(NCCCN)c2nccc(C)c2c1Oc1cccc(C(F)(F)F)c1.O=C(O)CCC(=O)O` [PQ1, 6-Methoxy-8-[(3-aminopropyl)amino]-4-methyl-5-(3-trifluoromethylphenyloxy) quinoline succinic acid]: the GJIC activity result in data set [1] is “no effect”. Besides, the cell morphology entry in the data set with T47D cells is “No effect”. In addition, the cell proliferation result in data set [2] is on record as “no effect”. Further, the “cell viability compared to control” value was determined as 95% in the data set on MEC (100 nM) and 103% with MEC (200 nM). In addition, in the data set on MEC (1 μM), the cell viability is reported as 50%. In the data set with Cx32, the Cx32 expression result is “no effect”. Also, the Cx43 expression result in the data set on Cx43 was “no effect”. Besides, the solubility in water entry in the data set “Solubility in water” is recorded as “soluble in water”.

These data come from patent US8809368B2, “Compounds affecting gap junction activity” (Kansas State University Research Foundation, priority 2006, dated 2014).
